In publication PMC9608462 (Molecules, 2022):
Where two headings read alike, the source gives them in different places.

Key:
Ishikawa cells = Ishikawa cells proliferation (alkaline phosphatase activity); format: cell-based, human; details: for alkaline phosphatase activity of Ishikawa cells: 10^3–10^4 nM; for alkaline phosphatase activity of Ishikawa cells / alkaline phosphatase activity / proliferation of Ishikawa cells: 72 h; for alkaline phosphatase activity / proliferation of Ishikawa cells: 10–100 nM
Protocol: The estrogen-stimulated proliferation of Ishikawa cells was performed according to Wober and coworkers with some modifications: Ishikawa cells were seeded at a density of 5 × 10^3 cells/well in 96-well plates in phenol red-free DMEM/F12 containing 10% charcoal dextran-treated FBS. After 72 h, cells were washed with PBS and kept in the same media for the next 24 h. Then, the medium was changed, and cells were incubated with the tested compounds at concentrations ranging from 10^1 to 10^4 nM for 72 h. As a positive control, E2 at a concentration of 1 nM was used. […] The treated cells were grown for 72 h. The estrogenic stimulation was evaluated by alkaline phosphatase activity. After incubation, the cells were washed with PBS, and the plates were frozen at −20 °C until analysis. After thawing, the plates were warmed in a water bath up to 22 °C and incubated with the p-Nitrophenyl Phosphate Liquid Substrate System (Sigma-Aldrich). This ready-to-use, single-solution reagent contains p-nitrophenyl phosphate, buffer and the necessary magnesium cations. Alkaline phosphatase releases p-nitrophenol, measured kinetically at 405 nm using plate reader Biotek Instruments, Elx-800, Winooski, VT, USA).

MCF-7 cells = MCF-7 cells proliferation (Hoechst 33258 DNA fluorescence); format: cell-based, human; details: for DNA level / DNA synthesis of MCF-7 cells: 10^3–10^4 nM
Protocol: The estrogen-stimulated proliferation of MCF-7 cells was performed using Hoechst 33258 DNA staining. […] After 24 h, cells were washed with PBS and kept in the same media for the next 48 h. Then, cells were incubated with tested compounds at concentrations ranging from 10^1 to 10^4 nM for 96 h. E2 at 1 nM and 10 nM was used as a positive control. […] Proliferation was assessed by the fluorometric measurement of DNA. For this purpose, cells were washed with PBS, lysed using EDTA (0.5 mL, […], pH 12.3) at 37 °C for 30 min and neutralized with 10 mM KH2PO4, and then, Hoechst 33258 (1 mg/mL) was added. Excitation at 350 nm and emission at 455 nm was used for fluorescence measurement using Tecan Infinite M Plex microplate reader (Männedorf, Switzerland).

human ERβ = molecular target: T1, human ERβ (Homo sapiens, UniProt Q92731); assay: Fluorescence polarization ER/D22 coactivator-peptide assay, ERβ; format: biochemical; details: for EC50: recombinant human ERβ, D22 peptide, 1 h; for agonistic/antagonistic activity for ERβ: fluorescence polarisation, recombinant receptor
T1 construct: purchased Panvera (Göttingen, Germany)
Protocol: (§1) Binding affinities to ERα and ERβ were determined by the dose dependence binding of the test compounds with purified human Erα and Erβ. All chemicals were obtained from Panvera (Göttingen, Germany). The assay was performed according to the protocols recommended by the manufacturer. […] D22 is a coactivator-like peptide containing an LXXLL motif and flanking sequences that resemble known coactivators. Agonist-bound ER (ERα or ERβ) can recruit D22, resulting in a more significant fraction of bound D22 and a larger polarization value. Antagonist-bound ER has a lower affinity for D22, yielding a more significant fraction of unbound D22 and a lower polarization value. Recombinant human ERα or ERβ were incubated with the tested compounds for one hour. Fluorescence polarization was measured using a Tecan Ultra Evolution multiwell plate reader (Tecan, Crailsheim, Germany) at excitation wavelength 540 nm and emission wavelength 580 nm. […] The EC50 values were derived by logarithmic curve-fitting from binding curves using GraphPad Prism 8.4.3. GraphPad Software, San Diego, California, USA. EC50 was determined from at least three independent experiments.

human ERα = molecular target: T2, human ERα (Homo sapiens, UniProt P03372); assay: Fluorescence polarization ER/D22 coactivator-peptide assay, ERα; format: biochemical; details: for agonistic/antagonistic activity for ERα: fluorescence polarisation, recombinant receptor; for EC50: recombinant human ERα, D22 peptide, 1 h
T2 construct: purchased Panvera (Göttingen, Germany)
T2 sequence (P03372 1-595): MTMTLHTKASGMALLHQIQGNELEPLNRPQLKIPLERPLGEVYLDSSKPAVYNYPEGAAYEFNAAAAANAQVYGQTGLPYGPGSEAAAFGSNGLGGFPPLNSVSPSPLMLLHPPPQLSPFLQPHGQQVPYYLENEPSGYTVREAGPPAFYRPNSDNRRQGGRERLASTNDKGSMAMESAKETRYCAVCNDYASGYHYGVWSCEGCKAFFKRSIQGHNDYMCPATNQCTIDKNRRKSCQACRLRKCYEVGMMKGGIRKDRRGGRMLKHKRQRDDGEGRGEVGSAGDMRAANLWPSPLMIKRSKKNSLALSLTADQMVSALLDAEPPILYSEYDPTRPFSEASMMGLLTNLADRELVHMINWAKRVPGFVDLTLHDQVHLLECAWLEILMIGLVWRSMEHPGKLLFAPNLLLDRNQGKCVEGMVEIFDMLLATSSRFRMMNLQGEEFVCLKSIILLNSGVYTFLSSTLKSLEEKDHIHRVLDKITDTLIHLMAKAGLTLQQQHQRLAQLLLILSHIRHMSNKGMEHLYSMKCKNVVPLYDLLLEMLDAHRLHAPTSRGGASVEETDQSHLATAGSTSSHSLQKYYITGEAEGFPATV
Protocol: as §1

[1] = test system: MCF-7 cells transfected with luciferase reporter gene; details: read-out: EC50 of luciferase expression; cited from earlier work
[2] = test system: human endometrial adenocarcinoma cells (Ishikawa); details: read-out: IC50, suppression of E2-induced expression of alkaline phosphatase; cited from earlier work
[3] = test system: human endometrial adenocarcinoma cells (Ishikawa); details: E2-induced; cited from earlier work
[4] = 100–1000 nM (as in conclusions)

T1 sequence (Q92731 whole entry): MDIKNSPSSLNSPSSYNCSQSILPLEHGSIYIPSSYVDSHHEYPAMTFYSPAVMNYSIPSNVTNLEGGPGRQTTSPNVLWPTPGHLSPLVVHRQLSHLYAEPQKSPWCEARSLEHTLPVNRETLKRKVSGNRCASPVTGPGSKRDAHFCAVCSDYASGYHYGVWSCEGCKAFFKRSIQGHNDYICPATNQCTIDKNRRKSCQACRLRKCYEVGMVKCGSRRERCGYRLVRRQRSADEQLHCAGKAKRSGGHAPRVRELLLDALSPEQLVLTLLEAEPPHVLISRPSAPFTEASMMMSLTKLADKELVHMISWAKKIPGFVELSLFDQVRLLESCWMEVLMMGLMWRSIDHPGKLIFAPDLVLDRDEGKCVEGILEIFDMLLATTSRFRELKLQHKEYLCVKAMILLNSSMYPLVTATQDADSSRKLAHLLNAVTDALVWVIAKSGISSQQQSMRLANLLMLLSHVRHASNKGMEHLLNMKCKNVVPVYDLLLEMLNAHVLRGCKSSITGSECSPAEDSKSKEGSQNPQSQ

| EC50 (human ERβ; read-out: ERβ antagonist EC50) [nM] | agonistic/antagonistic activity for ERα (human ERα) | EC50 (human ERα; read-out: ERα antagonist EC50) [nM] | agonistic/antagonistic activity for ERβ (human ERβ) | EC50 (human ERβ; read-out: ERβ Agonist EC50) [nM] | EC50 (human ERα; read-out: ERα Agonist EC50) [nM] | SMILES | alkaline phosphatase activity of Ishikawa cells (Ishikawa cells) | alkaline phosphatase activity / proliferation of Ishikawa cells (Ishikawa cells) | DNA level / DNA synthesis of MCF-7 cells (MCF-7 cells) | EC50 [1] [nM] | proliferation of Ishikawa cells (Ishikawa cells; [4]) | IC50 [2] [nM] | concentration range suppressing progesterone receptor (PR) mRNA levels [3] [µM] | proliferation of MCF-7 cells (MCF-7 cells; [4]) |
| --- | --- | --- | --- | --- | --- | --- | --- | --- | --- | --- | --- | --- | --- | --- |
| > 5000 | antagonistic activity | 1010 ± 30.5 |  |  |  | Oc1cc(O)cc(C=Cc2cc(O)c(O)c(O)c2)c1 [Compound M11, 3,3′,4,5,5′-pentahydroxystilbene] | significantly lower compared with the control | stimulated the alkaline phosphatase | significantly lower compared with the control |  |  |  |  |  |
|  | agonistic activity |  | could act as ERβ agonists | 8.1 ± 1.6 | 108 ± 10.2 | Oc1ccc(C=Cc2cc(O)c(O)c(O)c2)cc1 [Compound M8, 3,4,4′,5-tetrahydroxystilbene] | significantly lower compared with the control | stimulated the alkaline phosphatase | increased DNA synthesis |  |  |  |  |  |
| > 5000 | antagonistic activity | 110 ± 15.5 | did not show an antagonistic effect |  |  | Oc1cc(C=Cc2cc(O)c(O)c(O)c2)cc(O)c1O [Compound M12, 3,3′,4,4′,5,5′-hexahydroxystilbene] | significantly lower compared with the control | stimulated the alkaline phosphatase |  |  |  |  |  |  |
|  | agonistic activity |  |  |  | 21.2 ± 2.2 | Oc1ccc(/C=C/c2cc(O)cc(O)c2)cc1 [resveratrol] | stimulated an increase in the level of the assessed markers |  | stimulated an increase in the level of the assessed markers | 5000 to 10000 | stimulated the proliferation | 2300 | 5 to 15 | stimulated the proliferation |
